In US6699887B2, “Anti-HIV pyrazole derivatives” (Hoffmann-La Roche Inc., priority 2000, dated 2004):

Tests used:
HIV-1 RT = HIV-1 RT (Human immunodeficiency virus type 1 group M subtype B, UniProt P04585); experiment: HIV-1 Reverse Transcriptase Assay: Inhibitor IC50 Determination; assay type: biochemical; conditions: purified recombinant enzyme, poly(rA)/oligo(dT)16 template-primer, 37° C. 30 min
Method: Assay Method: HIV-1 Reverse Transcriptase Assay: Inhibitor IC50 Determination:
HIV-1 RT assay was carried out in 96-well Millipore filtermat NOB50 plates using purified recombinant enzyme and a poly(rA)/oligo(dT)16 template-primer in a total volume of 50 μL. The assay constituents were 50 mM Tris/HCl, 50 mM NaCl, 1 mM EDTA, 6 mM MgCl2, 5 μM dTTP, 0.1 μCi [^3H] dTTP, 5 μg/ml poly (rA) pre annealed to 2.5 μg/ml oligo (dT)16 and a range of inhibitor concentrations in a final concentration of 10% DMSO. Reactions were initiated by adding 5 nM HIV-1 RT and after incubation at 37° C. for 30 min, they were stopped by the addition of 50 μl ice cold 20%TCA and allowed to precipitate at 4° C. for 30 min. The precipitates were collected by applying vacuum to the plate and sequentially washing with 2×200 μl of 10% TCA and 2×200 μl 70% ethanol. Finally the plates were dried and radioactivity counted in a Wallac Microbeta 1450 after the addition of 15 μl scintillation fluid per well. IC50's were calculated by plotting % inhibition versus log10 inhibitor concentrations.

HXB2-strain of HIV = experiment: Antiviral assay: protection of HIV-infected MT4 cells from cell death (MTT); assay type: cell-based; conditions: Human immunodeficiency virus 1, 120 h; MT4 cells infected with HXB2-strain of HIV, 5 days, MTT viability
Method: Anti-HIV antiviral activity was assessed using an adaptation of the method of Pauwels et al. {Pauwels et al., 1988, J Virol Methods 20:309-321}. The method is based on the ability of compounds to protect HIV-infected T lymphoblastoid cells (MT4 cells) from cell-death mediated by the infection. The endpoint of the assay was calculated as the concentration of compound at which the cell viability of the culture was preserved by 50% (‘50% inhibitory concentration’, IC50). The cell viability of a culture was determined by the uptake of soluble, yellow 3-[4,5-dimethylthiazol-2-yl]-2,5-diphenyltetrazolium bromide (MTT) and its reduction to a purple insoluble formazan salt. After solubilization, spectrophotometric methods were employed to measure the amount of formazan product.
MT4 cells were prepared to be in logarithmic-phase growth and a total of 2×10^6 cells infected with the HXB2-strain of HIV at a multiplicity of 0.0001 infectious units of virus per cell in a total volume of between 200-500 microliters. The cells were incubated with virus for one hour at 37° C. before removal of virus. The cells are then washed in 0.01 M phosphate buffered saline, pH 7.2 before being resuspensed in culture medium for incubation in culture with serial dilutions of test compound. The culture medium used was RPMI 1640 without phenol red, supplemented with penicillin, streptomycin, L-glutamine and 10% fetal calf serum (GM10).
Test compounds were prepared as 2 mM solutions in dimethyl sulphoxide (DMSO). Four replicate, serial 2-fold dilutions in GM10 were then prepared and 50 microliters amounts placed in 96-well plates over a final nanomolar concentration range of 625-1.22. Fifty microliters GM10 and 3.5×10^4 infected cells were then added to each well. Control cultures containing no cells (blank), uninfected cells (100% viability; 4 replicates) and infected cells without compound (total virus-mediated cell death; 4 replicates) were also prepared. The cultures were then incubated at 37° C. in a humidified atmosphere of 5% CO2 in air for 5 days.
A fresh solution of 5 mg/mL MTT was prepared in 0.01 M phosphate buffered saline, pH 7.2 and 20 microliters added to each culture. The cultures were further incubated as before for 2 hours. They were then mixed by pipetting up and down and 170 microliters of Triton X-100 in acidified isopropanol (10% v/v Triton X-100 in 1:250 mixture of concentrated HCl in isopropanol). When the formazan deposit was fully solubilized by further mixing, the absorbance (OD) of the cultures was measured at 540 nm and 690 nm wavelength (690 nm readings were used as blanks for artefacts between wells). The percent protection for each treated culture was then calculated from the equation: [formula]
The IC50 can be obtained from graph plots of percent protection versus log10 drug concentration.

SMILES	IC50 (HIV-1 RT) [nM]	IC50 (HXB2-strain of HIV) [nM]
Cc1nn(-c2ccccc2)c(Sc2cc(Cl)cc(Cl)c2)c1Cc1ccccc1	2060	403
Cc1nn(-c2ccccc2)c(Sc2cc(Cl)cc(Cl)c2)c1CCc1ccccc1	3420	592
CCn1nc(COC)c(Cc2ccccc2)c1Sc1cc(Cl)cc(Cl)c1	8040	453
Cc1nn(C(C)C)c(Sc2cc(Cl)cc(Cl)c2)c1Cc1ccccc1	270	24
Cc1nn(-c2ccccc2)c(Sc2cc(Cl)cc(Cl)c2)c1Cc1ccncc1	105	36
CCn1nc(C)c(Cc2ccncc2)c1Sc1cc(Cl)cc(Cl)c1	84	9
Cc1nn(C(C)C)c(Sc2cc(Cl)cc(Cl)c2)c1Cc1ccccn1	1070	75
Cc1nn(C(C)C)c(Sc2cc(Cl)cc(Cl)c2)c1COCc1ccccc1	349	100
Cc1cc(C)cc(Sc2c(Cc3ccccn3)c(C)nn2C(C)C)c1	950	64
Cc1nn(C(C)C)c(Sc2cc(Cl)cc(Cl)c2)c1COc1cccnc1	313	110
Cc1nn(C(C)C)c(Sc2cc(Cl)cc(Cl)c2)c1COc1cncc(Cl)c1	650	203
Cc1nn(C(C)C)c(Sc2cc(Cl)cc(Cl)c2)c1COCc1ccncc1	112	3.6
Cc1nn(C(C)C)c(Sc2cc(Cl)cc(Cl)c2)c1Cc1cccnc1	572	14.6
Cc1nn(C(C)C)c(Sc2cc(Cl)cc(Cl)c2)c1Cc1ccncc1	76	2.7
Cc1nn(C(C)C)c(Sc2cc(Cl)cc(Cl)c2)c1CSc1ccncc1	292	34.1
Cc1nn(C(C)C)c(Sc2cc(Cl)cc(Cl)c2)c1Cc1ccncn1	456	13.5

SMILES	IC50 (HIV-1 RT) [nM]	IC50 (HXB2-strain of HIV) [nM]
Cc1nn(C(C)C)c(Sc2cc(Cl)cc(Cl)c2)c1COc1ccncc1	252	20
Cc1nn(C(C)C)c(Sc2cc(Cl)cc(Cl)c2)c1Cc1ccncc1F	373	11.1
Cc1nn(C(C)C)c(Sc2cc(Cl)cc(Cl)c2)c1Cc1ccncc1Cl	177	51.7
CCn1nc(C)c(Cc2cncc(Br)c2)c1Sc1cc(Cl)cc(Cl)c1	398	124
Cc1nn(C(C)C)c(Sc2cc(Cl)cc(Cl)c2)c1Cc1ccc(C#N)cc1	176	11.9
Cc1nn(C(C)C)c(Sc2cc(Cl)cc(Cl)c2)c1Cc1ccnc(Cl)c1	109	15
Cc1cc(Cc2c(C)nn(C(C)C)c2Sc2cc(Cl)cc(Cl)c2)cc(Cl)n1	880	28
Cc1nn(C(C)C)c(Sc2cc(Cl)cc(Cl)c2)c1Cc1cnccn1	270	13.9
COc1cc(Cl)cc(Sc2c(Cc3ccnc(OC)c3)c(C)nn2C(C)C)c1	298	31.5
Cc1nn(C(C)C)c(Sc2cccc(Br)c2)c1Cc1ccncc1Cl	5200	
Cc1cccc(Sc2c(Cc3ccncc3Cl)c(C)nn2C(C)C)c1	1080	
Cc1cc(C)cc(Sc2c(Cc3ccncc3Cl)c(C)nn2C(C)C)c1	607	
Cc1nn(C(C)C)c(Sc2cccc(Br)c2)c1Cc1ccncc1F	463	19
Cc1cccc(Sc2c(Cc3ccncc3F)c(C)nn2C(C)C)c1	480	19
Cc1cc(C)cc(Sc2c(Cc3ccncc3F)c(C)nn2C(C)C)c1	90	8.1
